The values below come from US9187458B2, “Cyanoquinoline derivatives” (Tianjin Hemay Bio-Tech Co., LTD., priority 2010, dated 2015).

One test deals with Sk-Br-3 cells. Briefly: Sk-Br-3 Cell Growth Inhibition Test (SRB Assay). The class given is cell-based. Conditions: Homo sapiens, 91 h incubation. In outline:
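Sk-Br-3 cells seeded at 10000/well in DMEM with 10% FBS were incubated overnight, then exposed to compound for 91 h at 37° C, 5% CO2. TCA-fixed cells were SRB-stained and OD read at 570 nm. GI50, TGI and LC50 were derived from growth relative to time-zero, untreated and blank wells.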

Another test concerns LoVo cells. Briefly: LoVo Cell Growth Inhibition Test (MTT Assay). It counts as cell-based. Particulars: Homo sapiens, 72 h incubation. The protocol: LoVo Cell Growth Inhibition Test (MTT Assay)
1. Cell strains: LoVo (human intestinal cancer cell strains);
1. A plate (10 cm) of cells in logarithmic growth phase normally cultured was collected;
2. The culture solution was sucked out. The plate was washed with 5 ml of PBS 1-2 times;
3. PBS was sucked out. 2 ml of 0.25% pancreatin was added to infiltrate the cells for 1 min;
4. The pancreatin was sucked out. The culture plate was placed in an incubator. Digestion was carried out for about 4 min at 37° C.;
5. 4 ml of complete culture solution was added in the culture plate to stop the digestion. The cells were carefully scoured with micropipette (1 ml) to give a uniform cell suspension. The suspension was implanted into a 96-well cell culture plate by 3000-4000 cells/100 μl per well. The culture plate was incubated overnight under 5% CO2 at 37° C. In day 2, 100 μl of culture solution comprising a compound was added into each well, and further incubated for 72 h under 5% CO2 at 37° C.
6. The culture solution was sucked out;
7. 100 μl of serum-free culture solution containing 0.5 mg/ml MTT was added in each well, and incubated for 4 h;
8. The culture solution was carefully sucked out;
9. 100 μl of DMSO was added in each well and vibrated to dissolve;
10. OD values were determined at 490 nM.
1. Calculation of Relative Inhibition Ratio The inhibition ratio of a compound on cell growth=(PC−n)/(PC−NC)×100%
IC50: Concentration of a compound where inhibition ratio was 50%. IC50 values were fitted with Origin7.5.

A further test has as its system A431 cells. Briefly: A431 Cell Growth Inhibition Test (MTT Assay). The class given is cell-based, human. Particulars: for inhibition at 1 µM / IC50: Homo sapiens; for inhibition at 1 µM: A-431, 68 h, read-out: Growth Inhibition Ratio (%); for IC50: A-431, 68 h incubation. The method, boiled down: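 Cells seeded at 2500/well in DMEM/F12 with 10% FBS, grown overnight, then exposed to compound for 68 h at 37 °C, 5% CO2. Viability by MTT (0.5 mg/ml, 4 h), DMSO-solubilised, OD 490 nm; IC50 is concentration giving 50% growth inhibition relative to controls.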

Each structure is given as a SMILES string.

A word on the GI50: it is the concentration giving 50% growth inhibition. As a reminder, the IC50 is the concentration that gives 50% inhibition. For `C#Cc1cccc(Nc2c(C#N)cnc3cc(O[C@@H]4CCOC4)c(NC(=O)/C=C/CN(C)C)cc23)c1` [Example 141, (R,E)-N-(3-CYANO-4-(3-ETHYNYLPHENYLAMINO)-7-(TETRAHYDROFURAN-3-YL-OXY)QUINOLIN-6-YL)-4-(DIMETHYLAMINO)-BUT-2-ENAMIDE], it took 39 nM to inhibit growth in the test with Sk-Br-3 cells by half (GI50). Further, the half-maximal inhibitory concentration (IC50) with LoVo cells was 7630 nM; in the test with A431 cells, 50 nM. Further, the inhibition at 1 µM in the test on A431 cells (compound 1 μM, 68 h incubation) is 80%.

Compound `CN(C)C/C=C/C(=O)Nc1cc2c(Nc3ccc(F)c(Cl)c3)c(C#N)cnc2cc1O[C@H]1CCOC1` [Example 142, (S,E)-N-(4-(3-CHLORO-4-FLUOROPHENYLAMINO)-3-CYANO-7-(TETRAHYDROFURAN-3-YL-OXY)QUINOLIN-6-YL)-4-(DIMETHYLAMINO)-BUT-2-ENAMIDE] registered a GI50 in the test with Sk-Br-3 cells of 117 nM. Besides, the 50% inhibitory concentration (IC50) was found to be 8830 nM in the test with LoVo cells and 45 nM in the test on A431 cells. In addition, in the test with A431 cells (compound 1 μM, 68 h incubation), the inhibition at 1 µM is 75%.

In the case of `C#Cc1cccc(Nc2c(C#N)cnc3cc(O[C@H]4CCOC4)c(NC(=O)/C=C/CN4CCCCC4)cc23)c1` [Example 144, (S,E)-N-(3-CYANO-4-(3-ETHYNYLPHENYLAMINO)-7-(TETRAHYDROFURAN-3-YL-OXY)QUINOLIN-6-YL)-4-(PIPERIDIN-1-YL)-BUT-2-ENAMIDE], in the test on Sk-Br-3 cells, halving of growth (GI50) required 202 nM. Also, the results for the concentration for half-maximal inhibition (IC50) with LoVo cells and in the test with A431 cells were 3300 nM and 26 nM, respectively.

Consider `N#Cc1cnc2cc(O[C@H]3CCOC3)c(NC(=O)/C=C/CN3CCOCC3)cc2c1Nc1ccc(OCc2ccccn2)c(Cl)c1` [Example 152, (S,E)-N-(4-(3-CHLORO-4-(PYRIDIN-2-YL-METHOXY)PHENYLAMINO)-3-CYANO-7-(TETRAHYDROFURAN-3-YL-OXY)QUINOLIN-6-YL)-4-(MORPHOLIN-4-YL)-BUT-2-ENAMIDE], for which the 50% growth inhibitory concentration (GI50) in the test on Sk-Br-3 cells came to 19 nM. Also, the IC50 in the test with LoVo cells was found to be 6600 nM; with A431 cells, 62 nM.

`C#Cc1cccc(Nc2c(C#N)cnc3cc(O[C@H]4CCOC4)c(NC(=O)/C=C/CN(C)Cc4ccccc4)cc23)c1` [Example 149, (S,E)-N-(3-CYANO-4-(3-ETHYNYLPHENYLAMINO)-7-(TETRAHYDROFURAN-3-YL-OXY)QUINOLIN-6-YL)-4-(N-METHYLBENZYLAMINO)-BUT-2-ENAMIDE] yielded a GI50 in the test on Sk-Br-3 cells of 644 nM. For the same compound, the figures for the 50% inhibitory concentration (IC50) in the test on LoVo cells and with A431 cells were 2300 nM and 89 nM, respectively.

Consider `CN(C)C/C=C/C(=O)Nc1cc2c(Nc3ccc(OCc4cccc(F)c4)c(Cl)c3)c(C#N)cnc2cc1OC1CCOC1` (centres unmarked) [Example 9, (E)-N-(4-(4-(3-FLUOROBENZYLOXY)-3-CHLOROPHENYLAMINO)-3-CYANO-7-(TETRAHYDROFURAN-3-YL-OXY)QUINOLIN-6-YL)-4-(DIMETHYLAMINO)-BUT-2-ENAMIDE], for which the 50% growth inhibitory concentration (GI50) with Sk-Br-3 cells came out at 15 nM. Besides, the IC50 was 1580 nM in the test with LoVo cells and 135 nM in the test on A431 cells. For the same compound, the “Growth Inhibition Ratio (%)” value in the test on A431 cells (compound 1 μM, 68 h incubation) is reported as 90%.

Regarding `CN(C)C/C=C/C(=O)Nc1cc2c(Nc3ccc(OCc4ccccn4)c(Cl)c3)c(C#N)cnc2cc1O[C@@H]1CCOC1` [Example 139, (R,E)-N-(4-(3-CHLORO-4-(PYRIDIN-2-YL-METHOXY)PHENYLAMINO)-3-CYANO-7-(TETRAHYDROFURAN-3-YL-OXY)QUINOLIN-6-YL)-4-(DIMETHYLAMINO)-BUT-2-ENAMIDE], the concentration for 50% growth inhibition (GI50) with Sk-Br-3 cells amounted to 5.2 nM. Further, the IC50 is 2200 nM in the test on LoVo cells and 93 nM with A431 cells. In the test on A431 cells (compound 1 μM, 68 h incubation), the inhibition at 1 µM came out at 90%.

In the test on Sk-Br-3 cells, `Cc1ccccc1COc1ccc(Nc2c(C#N)cnc3cc(OC4CCOC4)c(NC(=O)/C=C/CN(C)C)cc23)cc1Cl` (centres unmarked) [Example 17, (E)-N-(4-(4-(2-METHYLBENZYLOXY)-3-CHLOROPHENYLAMINO)-3-CYANO-7-(TETRAHYDROFURAN-3-YL-OXY)QUINOLIN-6-YL)-4-(DIMETHYLAMINO)-BUT-2-ENAMIDE] gave a GI50 of 7 nM. The half-inhibitory concentration (IC50) with LoVo cells was 2000 nM; in the test with A431 cells, 194 nM.

On to `C#Cc1cccc(Nc2c(C#N)cnc3cc(O[C@H]4CCOC4)c(NC(=O)/C=C/CN(CC)CC)cc23)c1` [Example 143, (S,E)-N-(3-CYANO-4-(3-ETHYNYLPHENYLAMINO)-7-(TETRAHYDROFURAN-3-YL-OXY)QUINOLIN-6-YL)-4-(DIETHYLAMINO)-BUT-2-ENAMIDE], for which it took 231 nM to inhibit growth in the test with Sk-Br-3 cells by half (GI50). Besides, the IC50 with LoVo cells turned out to be 7500 nM; in the test on A431 cells, 59 nM. In addition, in the test with A431 cells (compound 1 μM, 68 h incubation), the inhibition at 1 µM came to 70%.

In turn, `CN(C)C/C=C/C(=O)Nc1cc2c(Nc3ccc(OCc4ccccn4)c(Cl)c3)c(C#N)cnc2cc1OC1CCOC1` (centres unmarked) [Example 21, (E)-N-(4-(3-CHLORO-4-(PYRIDIN-2-YL-METHOXY)PHENYLAMINO)-3-CYANO-7-(TETRAHYDROFURAN-3-YL-OXY)QUINOLIN-6-YL)-4-(DIMETHYLAMINO)-BUT-2-ENAMIDE] came in with a GI50 in the test with Sk-Br-3 cells of 4.1 nM. In addition, the IC50 in the test with LoVo cells stood at 2000 nM; in the test with A431 cells, 81 nM.

For the compound `N#Cc1cnc2cc(O[C@H]3CCOC3)c(NC(=O)/C=C/CN3CCCCC3)cc2c1Nc1ccc(OCc2ccccn2)c(Cl)c1` [Example 151, (S,E)-N-(4-(3-CHLORO-4-(PYRIDIN-2-YL-METHOXY)PHENYLAMINO)-3-CYANO-7-(TETRAHYDROFURAN-3-YL-OXY)QUINOLIN-6-YL)-4-(PIPERIDIN-1-YL)-BUT-2-ENAMIDE], the GI50 in the test with Sk-Br-3 cells is 17 nM. Also, the figures for the IC50 with LoVo cells and with A431 cells were 1900 nM and 61 nM, respectively.

In the test on Sk-Br-3 cells, `CN(C)C/C=C/C(=O)Nc1cc2c(Nc3ccc(OCc4ccccc4Cl)c(Cl)c3)c(C#N)cnc2cc1OC1CCOC1` (centres unmarked) [Example 10, (E)-N-(4-(4-(2-CHLOROBENZYLOXY)-3-CHLOROPHENYLAMINO)-3-CYANO-7-(TETRAHYDROFURAN-3-YL-OXY)QUINOLIN-6-YL)-4-(DIMETHYLAMINO)-BUT-2-ENAMIDE] yielded a GI50 of 6 nM. The 50% inhibitory concentration (IC50) in the test with LoVo cells turned out to be 2000 nM; with A431 cells, 222 nM.

`CN(C)C/C=C/C(=O)Nc1cc2c(Nc3ccc(OCc4ccc(Cl)cc4)c(Cl)c3)c(C#N)cnc2cc1OC1CCOC1` (centres unmarked) [Example 16, (E)-N-(4-(4-(4-CHLOROBENZYLOXY)-3-CHLOROPHENYLAMINO)-3-CYANO-7-(TETRAHYDROFURAN-3-YL-OXY)QUINOLIN-6-YL)-4-(DIMETHYLAMINO)-BUT-2-ENAMIDE] registered a GI50 in the test on Sk-Br-3 cells of 36 nM. Besides, the IC50 with LoVo cells came out at 1800 nM; in the test with A431 cells, 358 nM.
